In patent publication US4007196A, “4-Phenylpiperidine compounds” (priority 1973, dated 1977):
Structures can show the parent of a compound that is named as a salt. Where two headings read alike, the source gives them in different places.

Experiments:
[1] = Antidepressant daily dose; assay type: in vivo; settings: daily doses
Method: In comparison, daily doses of 200-300 mg of imipramine are recommended.

cardiovascular system = test: Effect on the cardiovascular system (side-effects); assay type: in vivo; settings: comparison in words
Source text: Known tricyclic thymoleptics affect the cardiovascular and peripheral autonomic nervous systems causing a wide range of side-effects. Cardiac disturbances and varying degrees of hypotension occur rather frequently and may be very serious.

Acute toxicity in mice = settings: mouse, in vivo
5HT-uptake = test: Antagonism of p-chloroamphetamine (PCA)-induced 5HT-depletion from rat brain (5HT-uptake inhibitory activity); assay type: in vivo; settings: for ED50: rat brain
Source text: 5HT-uptake inhibitory activity
Antagonism of p-chloroamphetamine (PCA)-induced 5HT-depletion from rat brain: […]

[2] = daily doses; cited from earlier work

For `Fc1ccc(C2CCNCC2COc2ccc3c(c2)OCO3)cc1` (single isomer, unassigned) [GF 74, (-)-α-4-(4-Fluorophenyl)-3-(1,3-benzdioxolyl-(3))-oxymethyl piperidine maleate], the “daily dose active as an antidepressant” value [1] was 15 to 25 mg, the “effect on the cardiovascular system compared with tricyclic thymoleptics” value (cardiovascular system) was “affect the cardiovascular system less than do the most common tricyclic thymoleptics” and the LD50 (Acute toxicity in mice; oral administration) was 500 mg/kg. For the same compound, the LD50 (Acute toxicity in mice; sc, subcutaneous injection) was 845 mg/kg.

For `CN(C)CCCN1c2ccccc2CCc2ccccc21` [Imipramine], the “ED50 p.o., antagonism of PCA-induced 5HT-depletion” value (5HT-uptake; po, 3 h) was “+”, the ED50 (5HT-uptake; po, p.o., test drugs administered 2 hours before PCA, read-out: ED50 p.o., antagonism of PCA-induced 5HT-depletion) was 44 mg/kg and the ED50 (5HT-uptake; sc, test drugs administered s.c. simultaneously with PCA, read-out: ED50 s.c., antagonism of PCA-induced 5HT-depletion) was 8 mg/kg. For the same compound, the recommended daily dose [2] was 200 to 300 mg.
